Read-outs that look alike come from different tables or passages of the source.
Tested on: TGFβ signal
Test: TGFβ signal inhibitory activity, (SBE)4-Luc reporter in A549 cells (Test Examples 1A and 1B)
Format: cell-based, human
Outline: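 Compounds at 3 µM and 10 µM (some 1 µM) were added with 2 ng/ml TGFβ-1 to A549 cells stably expressing an SBE-driven luciferase, then cultured 4 hr. Chemiluminescent luciferase signal gave % inhibition versus TGFβ-alone and no-TGFβ controls.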

[1] = Homo sapiens, A549, 3 µM, compounds of Reference Examples (Test Example 1B), read-out: TGFβ inhibition rate, %
[2] = Homo sapiens, A549, 10 µM, compounds of Reference Examples (Test Example 1B), read-out: TGFβ inhibition rate, %
[3] = Homo sapiens, A549, test compound 3 µM, TGFβ-1 2 ng/ml, 4 hr, Table 1A, read-out: TGFβ inhibition rate, %
[4] = Homo sapiens, A549, test compound 10 µM, TGFβ-1 2 ng/ml, 4 hr, Table 1A, read-out: TGFβ inhibition rate, %
[5] = Homo sapiens, A549, test compound 3 µM, Reference Examples, Table 1B, read-out: TGFβ inhibition rate, %
[6] = Homo sapiens, A549, test compound 10 µM, Reference Examples, Table 1B, read-out: TGFβ inhibition rate, %

| Compound | inhibition at 3 µM [1] [%] | inhibition at 10 µM [2] [%] | other results |
| --- | --- | --- | --- |
| COc1cc2nccc(Oc3ccc(C)nc3-c3ccccn3)c2cc1OC [r261] | 100 | 100 | – |
| COc1ccc2ncnc(Oc3cc(C)c(C)nc3-c3ccccn3)c2c1 [Compound 26, 4-(5,6-Dimethyl-[2,2']bipyridin-3-yloxy)-6-methoxy-quinazoline] | – | – | inhibition at 3 µM [3]: 83%; inhibition at 10 µM [4]: 99% |
| Cc1cc(Oc2ccnc3cc(-c4ccccn4)ccc23)c(-c2ccccn2)nc1C [Compound 176, 5,6-Dimethyl-3-(7-pyridin-2-yl-quinolin-4-yloxy)-[2,2']bipyridine] | – | – | inhibition at 3 µM [3]: 99%; inhibition at 10 µM [4]: 100% |
| COc1cc2c(Oc3cc4ccccc4nc3C)ccnc2cc1OCCO [Compound r369] | 99 | 100 | – |
| COc1cc2c(Oc3cc(C)c(C)nc3-c3ccc(C)cn3)ccnc2cc1OCCCl [Compound r466] | 99 | 100 | – |
| COc1cc2c(Oc3cc(C)c(C)nc3-c3cccc(C)n3)ccnc2cc1OCC(CO)CO [Compound r448] | 70 | 97 | – |
| CCC(=O)c1cc(C(C)(C)C)ccc1Oc1ccnc2cc(OC)c(OC)cc12 [Compound r49] | – | – | inhibition at 3 µM [5]: 0%; inhibition at 10 µM [6]: 62% |
| COc1cc2nccc(Oc3ccc(C)nc3-c3ccc(C)cc3)c2cc1OC [Compound r242] | 68 | 99 | – |
| COc1cc2c(Oc3cc4ccccc4nc3C(C)=O)ccnc2cc1OCCO [Compound r392] | 93 | 100 | – |
| COc1cc2nccc(Oc3cc(C)c(C)nc3-c3ccccn3)c2cc1O [Compound 141, 4-(5,6-Dimethyl-[2,2']bipyridinyl-3-yloxy)-7-methoxy-quinolin-6-ol] | – | – | inhibition at 3 µM [3]: 100%; inhibition at 10 µM [4]: 100% |
| COc1cc2c(Oc3ccc(C)cc3C(=O)c3ccccc3)ccnc2cc1OCC(O)CN1CCN(C)CC1 (stereo not shown) [Compound r158] | – | – | inhibition at 3 µM [5]: 100%; inhibition at 10 µM [6]: 100% |
| COc1cc2c(Oc3cc4ccccc4nc3C)ccnc2cc1OCC(CO)CO [Compound r387] | 99 | 100 | – |
| COc1cc2c(Oc3ccc(C)cc3C(=O)c3ccccc3)ccnc2cc1OCCCN1CCC(N2CCCC2)CC1 [Compound r136] | – | – | inhibition at 3 µM [5]: 90%; inhibition at 10 µM [6]: 100% |
| COc1cc2ncnc(Oc3cc(C)c(C)nc3-c3cccnc3)c2cc1OC [Compound 48, 4-(5,6-Dimethyl-[2,3']bipyridinyl-3-yloxy)-6,7-dimethoxy-quinazoline] | – | – | inhibition at 1 µM (Homo sapiens, A549, test compound 1 µM, TGFβ-1 2 ng/ml, 4 hr, Table 1A, read-out: TGFβ inhibition rate, %): 28%; inhibition at 3 µM [3]: 64% |
| COc1cc2c(Oc3cc4cnccc4nc3C)ccnc2cc1OCCO [Compound r407] | 71 | 97 | – |
| COc1ccc(Oc2ccnc3cc(OCCN4CCOCC4)c(OC)cc23)c(C(C)=O)c1 [r120] | – | – | inhibition at 3 µM [5]: 94%; inhibition at 10 µM [6]: 100% |
| Clc1cc2nccc(Oc3cc4cccnc4nc3-c3ccccc3)c2cc1Cl [Compound 58, 3-(6,7-Dichloro-quinolin-4-yloxy).2-phenyl-[1,8]naphthyridine] | – | – | inhibition at 3 µM [3]: 83%; inhibition at 10 µM [4]: 100% |
| COc1cc2c(Oc3ccc(C)cc3C(=O)c3ccccc3)ccnc2cc1OCCCN1CCN(C)CC1 [r138] | – | – | inhibition at 3 µM [5]: 96%; inhibition at 10 µM [6]: 100% |
| COc1cc2c(Oc3cc(C)c(C)nc3-c3cccnc3)ccnc2cc1OCCO [Compound r346] | 99 | – | – |
| CCCOc1ccc(Oc2ccnc3cc(OC)c(OC)cc23)c(C(C)=O)c1 [Compound r179] | 18 | 68 | – |
| COc1cc2nccc(Oc3cc4ccccc4nc3-c3cc(C)c(Cl)s3)c2cc1OC [r290] | 18 | 57 | – |
| Cc1ccc(-c2nc(C)c(C)cc2Oc2ccnc3cc(Cl)ccc23)nc1 [Compound r432] | 99 | 100 | – |
| COc1cc2nccc(Oc3cc4ccccc4nc3-c3ccc(F)cc3F)c2cc1OC [r286] | 93 | 100 | – |
| Cc1ccc(Oc2ccnc3ccc(OCCN4CCOCC4)cc23)c(-c2ncccn2)n1 [Compound 209, 4-(6-Methyl-2-pyrimidin-2-yl-pyridin-3-yloxy)-6-(2-morpholin-4--yl-ethoxy)-quinoline] | – | – | inhibition at 3 µM [3]: 54% |
| COc1cc2nccc(Oc3cc4cccnc4nc3-c3ccccc3)c2cc1O [Compound 124, 7-Methoxy-4-(2-phenyl-[1,8]naphthyridin-3-yloxy)-quinolin-6-ol] | – | – | inhibition at 3 µM [3]: 99%; inhibition at 10 µM [4]: 100% |
| COc1cc2c(Oc3cc4cccnc4nc3C)ccnc2cc1OCCN1CCC(O)CC1 [Compound r451] | 99 | 100 | – |

| Compound | inhibition at 3 µM [1] [%] | inhibition at 10 µM [2] [%] | other results |
| --- | --- | --- | --- |
| COc1cc2nccc(Oc3cc4ccccc4nc3-c3ccccn3)c2cc1OC [r287] | 100 | 100 | – |
| COc1cc2c(Oc3cc4ccccc4nc3C(C)=O)ccnc2cc1O [Compound r390] | 16 | 64 | – |
| COc1cc2c(Oc3cc4ccccc4nc3C(C)=O)ccnc2cc1OCCN1CCCC(O)C1 (stereo not shown) [Compound r393] | 100 | – | – |
| Cc1cc(Oc2ccnc3ccc(-c4ncccn4)cc23)c(-c2ccccn2)nc1C [Compound 175, 5,6-Dimethyl-3-(6-pyrimidin-2-yl-quinolin-4-yloxy)-[2,2']bipyridine] | – | – | inhibition at 3 µM [3]: 97%; inhibition at 10 µM [4]: 100% |
| CNC(=O)c1cc(OC)ccc1Oc1ccnc2cc(OC)c(OC)cc12 [Compound r110] | – | – | inhibition at 3 µM [5]: 55%; inhibition at 10 µM [6]: 93% |
| 4-(6-Fluoro-2-iodo-pyridin-3-yloxy)-6,7-dimethoxy-quinoline [Compound r211] | – | – | TGFβ inhibition rate, % (3 µM, compounds of Reference Examples (Test Example 1B)): 87%; TGFβ inhibition rate, % (10 µM, compounds of Reference Examples (Test Example 1B)): 100% |
| COc1cc2nccc(Oc3ccc(C)nc3Cc3cccc(C)n3)c2cc1OC [r215] | 72 | 99 | – |
| COc1cc2nccc(Oc3cc(C)c(C)nc3-c3cccnc3C)c2cc1OC [Compound 44, 3-(6,7-Dimethoxy-quinolin-4-yloxy)-5,6,2'-trimethyl-[2,3']bipyridine] | – | – | inhibition at 3 µM [3]: 82%; inhibition at 10 µM [4]: 99% |
| COc1cc2nccc(Oc3cc4ccccc4nc3CN(C(C)C)C(C)C)c2cc1OC [Compound r277, [3-(6,7-Dimethoxy-quinolin-4-yloxy)-quinolin-2-ylmethyl]-diisopropyl-amine] | 32 | 89 | – |
| COc1cc2c(Oc3cc4ccccc4nc3C)ccnc2cc1CCCO [Compound r411] | 50 | 85 | – |
| Cc1cc(Oc2ccnc3ccc(O)cc23)c(-c2ccccn2)nc1C [Compound 139, 4-(5,6-Dimethyl-[2,2']bipyridinyl-3-yloxy)-quinolin-6-ol] | – | – | inhibition at 3 µM [3]: 100%; inhibition at 10 µM [4]: 100% |
| COc1cc2c(Oc3cc(C)c(C)nc3-c3ccccn3)ccnc2cc1Cl [Compound 105, 3-(7-Chloro-6-methoxy-quinolin-4-yloxy)-5,6-dimethyl-[2,2']bipyridine] | – | – | inhibition at 3 µM [3]: 100%; inhibition at 10 µM [4]: 100% |
| Cc1cc(Oc2ncnc3ccsc23)c(-c2ccccn2)nc1C [Compound 33, 5,6-Dimethyl-3-(thieno[3,2-d]pyrimidin-4-yloxy)-[2,2']bipyridine] | – | – | inhibition at 3 µM [3]: 86%; inhibition at 10 µM [4]: 99% |
| COc1cc2c(Oc3cc(C)c(C)nc3-c3nc(C)c(C)s3)ccnc2cc1OCCO [Compound r461] | 82 | – | – |
| COc1cc2c(Oc3ccc(C)cc3C(=O)c3ccccc3)ccnc2cc1OCCCCN1CCC(N2CCCCC2)CC1 [Compound r146] | – | – | inhibition at 3 µM [5]: 64%; inhibition at 10 µM [6]: 100% |
| CCOC(=O)c1cc(C(C)=O)ccc1Oc1ccnc2cc(OC)c(OC)cc12 [Compound r88] | – | – | inhibition at 3 µM [5]: 70%; inhibition at 10 µM [6]: 94% |
| COc1cc2c(Oc3cc4ccccc4nc3C)ccnc2cc1OCCCl [Compound r353] | 54 | 86 | – |
| COc1cc2ncnc(Oc3cc(C)c(C)nc3-c3ccc(C)cn3)c2cc1OC [r437] | 95 | 100 | – |
| CCCOC(=O)c1cc2ccccc2cc1Oc1ccnc2cc(OCCCN3CCOCC3)c(OC)cc12 [Compound r326] | 83 | 100 | – |
| CCOC(=O)C1CCN(CCOc2cc3nccc(Oc4cc5ccccc5nc4C)c3cc2OC)CC1 [Compound r363] | 100 | 100 | – |
| COc1cc2nccc(Oc3ccc(C)nc3-c3cn[nH]c3)c2cc1OC [r434] | 100 | 100 | – |
| COc1cc2nccc(Oc3cc4c(nc3-c3ccccc3)NCCC4)c2cc1C(=O)NCc1ccccc1 [Compound 99, 7-Methoxy-4-(2-phenyl-5,6,7,8-tetrahydro-[1,8]naphthyridin-3-yloxy)-quinoline-6-carboxylate benzylamide] | – | – | inhibition at 3 µM [3]: 76%; inhibition at 10 µM [4]: 92% |
| Cc1cc(Oc2ccnc3ccc(-c4ccncc4)cc23)c(-c2ccccn2)nc1C [Compound 7, 5,6-Dimethyl-3-(6-pyridin-4-yl-quinolin-4-yloxy)-[2,2']bipyridine] | – | – | inhibition at 3 µM [3]: 100%; inhibition at 10 µM [4]: 100% |
| COc1cc2nccc(Oc3ccc(C)nc3-c3ccsc3)c2cc1OC [r255] | 93 | 100 | – |
| COc1cc2nccc(Oc3cccnc3Br)c2cc1OC [r203] | 19 | 52 | – |
| COc1cc2c(Oc3cc(C)c(C)nc3-c3cccc(C)n3)ccnc2cc1OCCCl [Compound r465] | 98 | 100 | – |

From patent publication EP1724268A1, “COMPOUND HAVING TGF-BETA INHIBITORY ACTIVITY AND PHARMACEUTICAL COMPOSITION CONTAINING SAME” (KIRIN BEER KABUSHIKI KAISHA, priority 2004, dated 2005)
